In patent US20250198987A1, “SYSTEM FOR MEASURING METASTATIC POTENTIAL OF CANCER CELLS AND METHOD FOR MEASURING METASTATIC POTENTIAL OF CANCER CELLS BY USING SAME” (Seoul National University Hospital, priority 2020, published 2025):
Structures can show the parent of a compound that is named as a salt. Where two headings read alike, the source gives them in different places.

Experiments:
[1] = system: lung cancer cells (A549); conditions: lung mimicking model, FIG. 5A
Procedure: Then, gelation was allowed at room temperature for 15 minutes. Then, after coating with collagen (0.03 mg/ml, 1 VL content) (sigma, collagen type I solution) and fibronectin (0.001%, 5 mg) (Sigma, F0895) for two hours at 37° C., a total of 20 μl of 4×10^6/ml of HUVEC (LONZA, HUVEC-Umbil vein, Pooled cells) as vascular endothelial cells was added into one of the cell culture channels, the chip was raised at 90°, and the cells were cultured for one to two hours so as to be adhered in a direction of the gel layer formed in the middle. Then, put the chip down to its original state, replace the medium, and when the vascular endothelial cells form one blood vessel layer starting from the gel layer in the middle, a total of 20 μl of 1×10^6/ml lung cancer cells (A549) were put on the same layer, the chip was raised at 90° and cultured overnight so that the chip was attached in the direction of the gel layer formed in the middle. Then, the chip was put down again, the medium was replaced, and cultured for 5 days, and it was confirmed whether the lung cancer cells migrated to the middle gel layer. After that, the chip was put down to the original state again, the medium was replaced, the cells were cultured for five days, and whether the lung cancer cells migrated to the middle gel layer was checked. […]

[2] = system: lung cancer cells (A549); conditions: BBB mimicking model, FIG. 5B
Source text: In addition, the BBB mimicking model was manufactured in the same method of manufacturing the lung mimicking model, but astrocytes (Human Astrocytes) (ScienCell, #1800) were used instead of fibroblasts, human brain microvascular endothelial cells (HBMVEC) (Cell systems, ACBRI 376) were used instead of HUVECs as vascular endothelial cells, and the total culture periods were set to be different due to the difference in cell proliferation rates between the lung mimicking model and the BBB mimicking model. […] In the experimental method, as described in Example 1 above, blood vessel cells were treated with CD31, lung cancer cells were treated with cytokeratin 8, and the cells were photographed by using a confocal microscope, Carl Zeiss, LSM710.

With `c1cc(CN2CCCNCCNCCCNCC2)ccc1CN1CCCNCCNCCCNCC1` [AMD3100, AMD3100 (octahydrochloride)] the “metastasis of lung cancer cells” value ([1]; 1 μg/ml and 5 μg/ml, treated for one day or six days, compared to the group to which AMD3100 is not treated, confocal microscope) was “generally reduced”, the metastasis suppression ([1]; 1 μg/ml treated for six days, compared among treatment groups) was “best metastasis suppression” and the “metastasis of lung cancer cells” value ([2]; 1 μg/ml and 5 μg/ml, treated for one day or six days, confocal microscope) was “reduced more”. For the same compound, the metastasis suppression ([2]; 1 μg/ml treated for one day, compared among treatment groups) was “best metastasis suppression”.
